Results reported in patent publication US12403174B2, “Immunomodulators” (Bristol-Myers Squibb Company, priority 2020, dated 2025).
*1 amine or outer side, *2 acyl side, *3 side chain or, on linkers, in order; H or OH if unused. Where a SMILES comes first, the peptide text is derived from it. Bridges are numbered along the chain shown (N, C = ends). [ ]: non-standard residue; d: D form. The star is where a group is joined. Trp(1-CH2COOH) = N[C@@H](Cc1cn(CC(=O)O)c2ccccc12)C(=O)O; X6 = CCOC(=O)Cn1cc(C[C@H](N[*:1])C(=O)[*:2])c2ccccc21; X3 = CCOC(=O)c1ccc(Nc2c(*)c(=O)c2=O)cc1; X8 = O=C(O)c1ccc(Nc2c(*)c(=O)c2=O)cc1; X1 = O=c1c(Nc2c(Cl)cccc2Cl)c(*)c1=O; Hyp = O=C(O)[C@@H]1C[C@@H](O)CN1; NMeNle = CCCC[C@H](NC)C(=O)O; X2 = CC(C)Oc1c(*)c(=O)c1=O; X5 = CN(C)c1c(*)c(=O)c1=O; NMeA = CN[C@@H](C)C(=O)O; Orn = NCCC[C@H](N)C(=O)O; X7 = CCOc1c(*)c(=O)c1=O; Dap = NC[C@H](N)C(=O)O; X4 = COc1c(*)c(=O)c1=O

Biological target: T1, PD-1/PD-L1 (Homo sapiens, UniProt Q9NZQ7)
T1 construct: TVMV protease site linker (C); made in house; host or cells: HEK293T cells
T1 sequence (Q9NZQ7 18-239): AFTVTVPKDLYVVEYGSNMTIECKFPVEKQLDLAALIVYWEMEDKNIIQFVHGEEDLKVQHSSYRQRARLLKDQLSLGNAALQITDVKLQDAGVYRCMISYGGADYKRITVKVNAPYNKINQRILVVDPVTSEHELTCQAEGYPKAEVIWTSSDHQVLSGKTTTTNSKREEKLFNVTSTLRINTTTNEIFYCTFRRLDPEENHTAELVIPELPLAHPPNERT
Test: PD-1/PD-L1 Homogenous Time-Resolved Fluorescence (HTRF) binding assay
Conditions: PD-L1-His 10 nM, PD-1-Ig 20 nM; soluble extracellular domains
From the text: The ability of the compounds of formula (I) to bind to PD-L1 was investigated using a PD-1/PD-L1 Homogenous Time-Resolved Fluorescence (HTRF) binding assay.
The interaction of PD-1 and PD-L1 can be assessed using soluble, purified preparations of the extracellular domains of the two proteins. The PD-1 and PD-L1 protein extracellular domains were expressed as fusion proteins with detection tags, for PD-1, the tag was the Fc portion of Immunoglobulin (PD-1-Ig) and for PD-L1 it was the 6 histidine motif (PD-L1-His). All binding studies were performed in an HTRF assay buffer consisting of dPBS supplemented with 0.1% […] bovine serum albumin and 0.05% (v/v) Tween-20. For the h/PD-L1-His binding assay, inhibitors were pre-incubated with PD-L1-His (10 nM final) for 15 m in 4 μl of assay buffer, followed by addition of PD-1-Ig (20 nM final) in 1 μl of assay buffer and further incubation for 15 m. HTRF detection was achieved using europium crypate-labeled anti-Ig (1 nM final) and allophycocyanin (APC) labeled anti-His (20 nM final). Antibodies were diluted in HTRF detection buffer and 5 μl was dispensed on top of the binding reaction. The reaction mixture was allowed to equilibrate for 30 minutes and the resulting signal (665 nm/620 nm ratio) was obtained using an EnVision fluorometer. Additional binding assays were established between the human proteins PD-1-Ig/PD-L2-His (20 & 5 nM, respectively) and CD80-His/PD-L1-Ig (100 & 10 nM, respectively).
Recombinant Proteins: Human PD-1 (25-167) with a C-terminal human Fc domain of immunoglobulin G (Ig) epitope tag [hPD-1 (25-167)-3S-IG] and human PD-L1 (18-239) with a C-terminal His epitope tag [hPD-L1(18-239)-TVMV-His] were expressed in HEK293T cells and purified sequentially by ProteinA affinity chromatography and size exclusion chromatography. Human PD-L2-His and CD80-His was obtained through commercial sources.
Table 1 lists the IC50 values for representative examples of this disclosure measured in the PD-1/PD-L1 Homogenous Time-Resolved Fluorescence (HTRF) binding assay.

Structure (SMILES) | IC50 [nM]
CCCC[C@H]1C(=O)N(C)[C@@H](CCCC)C(=O)N[C@@H](CC(C)C)C(=O)N[C@H](C(=O)NCC(N)=O)CSCC(=O)N[C@@H](Cc2ccc(O)cc2)C(=O)N(C)[C@@H](C)C(=O)N[C@@H](CC(N)=O)C(=O)N2CCC[C@H]2C(=O)N[C@@H](CNc2c(OC)c(=O)c2=O)C(=O)N[C@@H](CC(C)C)C(=O)N2C[C@H](O)C[C@H]2C(=O)N[C@@H](Cc2c[nH]c3ccccc23)C(=O)N[C@@H](CCCNc2c(OC)c(=O)c2=O)C(=O)N[C@@H](Cc2cn(CC(=O)O)c3ccccc23)C(=O)N1C [Compound 1001] ({CH2CO}-Y[NMeA]NP[Dap](X4)L[Hyp]W[Orn](X4)[Trp(1-CH2COOH)][NMeNle][NMeNle]LCG-NH2; thioether N-14) | 4.2
CCCC[C@H]1C(=O)N(C)[C@@H](CCCC)C(=O)N[C@@H](CC(C)C)C(=O)N[C@H](C(=O)NCC(N)=O)CSCC(=O)N[C@@H](Cc2ccc(O)cc2)C(=O)N(C)[C@@H](C)C(=O)N[C@@H](CC(N)=O)C(=O)N2CCC[C@H]2C(=O)N[C@@H](CNc2c(OC)c(=O)c2=O)C(=O)N[C@@H](CC(C)C)C(=O)N2C[C@H](O)C[C@H]2C(=O)N[C@@H](Cc2c[nH]c3ccccc23)C(=O)N[C@@H](CCCN)C(=O)N[C@@H](Cc2cn(CC(=O)O)c3ccccc23)C(=O)N1C [Compound 1002] ({CH2CO}-Y[NMeA]NP[Dap](X4)L[Hyp]W[Orn][Trp(1-CH2COOH)][NMeNle][NMeNle]LCG-NH2; thioether N-14) | 3.6
CCCC[C@H]1C(=O)N(C)[C@@H](CCCC)C(=O)N[C@@H](CC(C)C)C(=O)N[C@H](C(=O)NCC(N)=O)CSCC(=O)N[C@@H](Cc2ccc(O)cc2)C(=O)N(C)[C@@H](C)C(=O)N[C@@H](CC(N)=O)C(=O)N2CCC[C@H]2C(=O)N[C@@H](CNc2c(OCC)c(=O)c2=O)C(=O)N[C@@H](CC(C)C)C(=O)N2C[C@H](O)C[C@H]2C(=O)N[C@@H](Cc2c[nH]c3ccccc23)C(=O)N[C@@H](CCCNc2c(OCC)c(=O)c2=O)C(=O)N[C@@H](Cc2cn(CC(=O)OCC)c3ccccc23)C(=O)N1C [Compound 1003] ({CH2CO}-Y[NMeA]NP[Dap](X7)L[Hyp]W[Orn](X7)[X6][NMeNle][NMeNle]LCG-NH2; thioether N-14) | 16

Other lines, results leading:

IC50 [nM] | Structure (SMILES)
4.3 | CCCC[C@H]1C(=O)N(C)[C@@H](CCCC)C(=O)N[C@@H](CC(C)C)C(=O)N[C@H](C(=O)NCC(N)=O)CSCC(=O)N[C@@H](Cc2ccc(O)cc2)C(=O)N(C)[C@@H](C)C(=O)N[C@@H](CC(N)=O)C(=O)N2CCC[C@H]2C(=O)N[C@@H](CNc2c(N(C)C)c(=O)c2=O)C(=O)N[C@@H](CC(C)C)C(=O)N2C[C@H](O)C[C@H]2C(=O)N[C@@H](Cc2c[nH]c3ccccc23)C(=O)N[C@@H](CCCNc2c(N(C)C)c(=O)c2=O)C(=O)N[C@@H](Cc2cn(CC(=O)O)c3ccccc23)C(=O)N1C [Compound 1004] ({CH2CO}-Y[NMeA]NP[Dap](X5)L[Hyp]W[Orn](X5)[Trp(1-CH2COOH)][NMeNle][NMeNle]LCG-NH2; thioether N-14)
1.4 | CCCC[C@H]1C(=O)N(C)[C@@H](CCCC)C(=O)N[C@@H](CC(C)C)C(=O)N[C@H](C(=O)NCC(N)=O)CSCC(=O)N[C@@H](Cc2ccc(O)cc2)C(=O)N(C)[C@@H](C)C(=O)N[C@@H](CC(N)=O)C(=O)N2CCC[C@H]2C(=O)N[C@@H](CNc2c(Nc3ccc(C(=O)OCC)cc3)c(=O)c2=O)C(=O)N[C@@H](CC(C)C)C(=O)N2C[C@H](O)C[C@H]2C(=O)N[C@@H](Cc2c[nH]c3ccccc23)C(=O)N[C@@H](CCCNc2c(Nc3ccc(C(=O)OCC)cc3)c(=O)c2=O)C(=O)N[C@@H](Cc2cn(CC(=O)O)c3ccccc23)C(=O)N1C [Compound 1005] ({CH2CO}-Y[NMeA]NP[Dap](X3)L[Hyp]W[Orn](X3)[Trp(1-CH2COOH)][NMeNle][NMeNle]LCG-NH2; thioether N-14)
2.8 | CCCC[C@H]1C(=O)N(C)[C@@H](CCCC)C(=O)N[C@@H](CC(C)C)C(=O)N[C@H](C(=O)NCC(N)=O)CSCC(=O)N[C@@H](Cc2ccc(O)cc2)C(=O)N(C)[C@@H](C)C(=O)N[C@@H](CC(N)=O)C(=O)N2CCC[C@H]2C(=O)N[C@@H](CNc2c(Nc3c(Cl)cccc3Cl)c(=O)c2=O)C(=O)N[C@@H](CC(C)C)C(=O)N2C[C@H](O)C[C@H]2C(=O)N[C@@H](Cc2c[nH]c3ccccc23)C(=O)N[C@@H](CCCNc2c(Nc3c(Cl)cccc3Cl)c(=O)c2=O)C(=O)N[C@@H](Cc2cn(CC(=O)O)c3ccccc23)C(=O)N1C [Compound 1006] ({CH2CO}-Y[NMeA]NP[Dap](X1)L[Hyp]W[Orn](X1)[Trp(1-CH2COOH)][NMeNle][NMeNle]LCG-NH2; thioether N-14)
1.6 | CCCC[C@H]1C(=O)N(C)[C@@H](CCCC)C(=O)N[C@@H](CC(C)C)C(=O)N[C@H](C(=O)NCC(N)=O)CSCC(=O)N[C@@H](Cc2ccc(O)cc2)C(=O)N(C)[C@@H](C)C(=O)N[C@@H](CC(N)=O)C(=O)N2CCC[C@H]2C(=O)N[C@@H](CNc2c(OC(C)C)c(=O)c2=O)C(=O)N[C@@H](CC(C)C)C(=O)N2C[C@H](O)C[C@H]2C(=O)N[C@@H](Cc2c[nH]c3ccccc23)C(=O)N[C@@H](CCCNc2c(OC(C)C)c(=O)c2=O)C(=O)N[C@@H](Cc2cn(CC(=O)O)c3ccccc23)C(=O)N1C [Compound 1007] ({CH2CO}-Y[NMeA]NP[Dap](X2)L[Hyp]W[Orn](X2)[Trp(1-CH2COOH)][NMeNle][NMeNle]LCG-NH2; thioether N-14)
2.9 | CCCC[C@H]1C(=O)N(C)[C@@H](CCCC)C(=O)N[C@@H](CC(C)C)C(=O)N[C@H](C(=O)NCC(N)=O)CSCC(=O)N[C@@H](Cc2ccc(O)cc2)C(=O)N(C)[C@@H](C)C(=O)N[C@@H](CC(N)=O)C(=O)N2CCC[C@H]2C(=O)N[C@@H](CNc2c(Nc3ccc(C(=O)O)cc3)c(=O)c2=O)C(=O)N[C@@H](CC(C)C)C(=O)N2C[C@H](O)C[C@H]2C(=O)N[C@@H](Cc2c[nH]c3ccccc23)C(=O)N[C@@H](CCCNc2c(Nc3ccc(C(=O)O)cc3)c(=O)c2=O)C(=O)N[C@@H](Cc2cn(CC(=O)O)c3ccccc23)C(=O)N1C [Compound 1009] ({CH2CO}-Y[NMeA]NP[Dap](X8)L[Hyp]W[Orn](X8)[Trp(1-CH2COOH)][NMeNle][NMeNle]LCG-NH2; thioether N-14)
